According to the SangsterLogP compilation:

Assay: method code SF-AS, from PMID: 7312925

Structure (SMILES) | logP
Cc1cc(O)c(N2CCOCC2)nn1 | -0.06
Cc1cc(OCC(=O)O)c(Cl)nn1 | -1.22
Cc1cc(O)c(Cl)nn1 | -0.82
Cc1cc(C)c(N)nn1 | -0.32
Cc1[nH]n2cnnc2c(=O)c1N=O | -1.1
Cc1cc(O)c(N)nn1 | -0.85
Cc1cc(=O)c2nncn2[nH]1 | -0.21
Cc1[nH]n2cnnc2c(=O)c1Br | -0.68
Cc1cc(C)c(N/N=C\c2ccccc2)nn1 | 0.93
Cc1cc(O)c(O)nn1 | -0.3
Cc1cc(O)c(N(C)C)nn1 | 0.24
CC(=O)Nc1nnc(C)cc1O | -0.89
Cc1cc(S)c(N)nn1 | 0.13
Cc1[nH]n2cnnc2c(=O)c1N | -0.52
Cc1cc(C)c(NN(C=O)Cc2ccccc2)nn1 | 0.61
CCOc1cc(=O)c2nncn2[nH]1 | 0.02
